The test system of this assay is P5 cells. The experiment in a line: P5 xenografts in nude mice, intratumoural therapy, tumour volume. It is filed as in vivo. The settings on record: Fig. 7. As for the experimental part: P5 cells were injected subcutaneously in nude mice. At a tumour volume of 500 mm^3 therapy was started (day 0) and repeated at day 2 and 12 as indicated by arrows. A total volume of 100 µl in PBS was injected intratumoural containing liposomes and cisplatin (5mg/kg), or liposomes with cisplatin and a mixture of recombinant caspase-8 and -9 proteins (10 U each) and pcDNA3caspase-8 and pcDNA3caspase-9 expression vectors (10 µg each) in the absence (CIS) or presence of DEX (DEX/CIS), (DEX/CIS/CASPASES) in the drinking water (0.28 mg/L). As controls, tumour growth of xenografts from untreated mice (CO) or from mice which received liposomes and empty pcDNA3 expression vector only (CO/Liposomes) was determined. The tumour volume in each animal was measured every second day for a period of 16 days. […]
• (A) Cell culture. […] The mice were given 0.28 mg/L DEX in drinking water, and the amount of water consumed was monitored. […] The tumour volumes were measured using callipers, and calculated using, as an approximation, the formula for volume of a hemi-ellipsoid: π(width^2 x length)/6. […] Early apoptotic changes were identified by staining of cells with fluoresceinthiocyanate (FITC)-conjugated annexin V and propidium iodide (Becton Dickinson, Heidelberg, Germany) and analysed by flow cytometry (FACScan, Becton Dickinson) as described (Herr et al., EMBO J. 16 (1997), 6200-6208) • (E) Immunohistochemistry. […]

SMILES strings stand for the structures.

Drawing on patent EP1283052A1, “Pharmaceutical composition containing caspase-8 and /or caspase-9 useful for overcoming glucocorticoid- and cancer therapy-induced apoptosis of tumours” (Deutsches Krebsforschungszentrum Stiftung des öffentlichen …, priority 2001, dated 2003), this text covers tumour growth for 1 compound.

On to `N.N.[Cl][Pt][Cl]` [cisplatin], for which the tumour growth result by setting is: (cisplatin 5mg/kg with liposomes intratumoural, day 0, 2 and 12, initial phase) “initially reduced”; (cisplatin-treated tumours at day 10 after treatment) “developed resistance and started to grow”.
